Data on eight compounds can be found in patent publication US7728002B2, “Use of pyrrolopyridine compounds for activating PPAR receptors and treatment of conditions involving such receptors” (Laboratoires Fournier S.A., priority 2005, dated 2010).

Each structure is given as a SMILES string.

The subject of one test is db/db mice. The test can be described thus: db/db mice model: serum glucose, triglycerides, cholesterol. To be noted: serum 4 hours after final gavage. It is filed as in vivo. On the procedure:
The test protocol is as follows:
Homozygous male C57BL/Ks-db mice (db/db mice), 11-13 weeks old at the start of the studies, are divided into groups of 9-10 animals. The products are administered orally, once a day for 5 days. A group of mice receives the vehicle alone (methylcellulose solution at 0.5% or 1%). A blood sample is taken from the retro-orbital sinus before treatment and 4 hours after the final gavage. After centrifugation, the serum is collected and the levels of cholesterol, triglycerides and glucose are measured using a multiparameter analyzer with commercial products. The results are expressed as a percentage of variation on the final day relative to the control group.

Test [1] deals with cells of murine muscle origin C2C12. Nature of the test: β-oxidation of 14C-oleate on C2C12 cells differentiated as myotubes. The following applies: 10 μM, 48 hours incubation. In kind it is cell-based. As for the experimental part: A second series of tests was performed with the compounds according to the invention, with the aim of confirming the activity deduced from their affinity for the receptors mentioned previously. This test consists in measuring the β-oxidation on cells of human hepatic origin HuH7 and cells of murine muscle origin C2C12 after differentiation as myotubes. The cells are inoculated in Petri dishes comprising a central well. The products are added to the culture medium and incubated for 48 hours at different concentrations. After incubation for 22 hours, ^14C-radiolabeled oleate (oleate 1-C14) is added to the culture medium. The β-oxidation reaction is stopped two hours later by adding 40% perchloric acid. The CO2 released during the oxidation of the oleate is trapped with KOH solution and then counted. Each test is performed three times. The results are expressed as a percentage of variation relative to the control dishes (dishes without compounds). According to this test, the compounds according to the invention increase the β-oxidation by up to +145% at a concentration of 10 μM on HuH7 cells.

Where [2] appears, read: 10 mg/kg orally once a day for 5 days.
[3] abbreviates: 100 mg/kg orally once a day for 5 days.
Setting [4] is: 3 mg/kg orally once a day for 5 days.

With `Cc1cc(C)cc(S(=O)(=O)n2c(CCCCC(=O)O)cc3nc(Cl)ccc32)c1` [Ex. 259, 5-Chloro-1-[(3,5-dimethylphenyl)sulfonyl]-1H-pyrrolo[3,2-b]pyridine-2-pentanoic acid], in the test on db/db mice (setting [2]), the “Cholesterol, percentage of variation relative to the control group” value is recorded as “+32%”; the “Glucose, percentage of variation relative to the control group” value is listed as −51%; the “Triglycerides, percentage of variation relative to the control group” value was −16%.

`O=C(O)CCCc1cc2nc(Cl)ccc2n1S(=O)(=O)c1ccc(-c2ccncc2)cc1` [Ex. 293, 5-Chloro-1-[[4-(4-pyridyl)phenyl]sulfonyl]-1H-pyrrolo[3,2-b]pyridine-2-butanoic acid]: in the test on db/db mice (setting [2]), the “Cholesterol, percentage of variation relative to the control group” value is reported as “+16%”; the “Glucose, percentage of variation relative to the control group” value is recorded as −24%; the “Triglycerides, percentage of variation relative to the control group” value is recorded as −15%.

Take `O=C(O)CCc1cc2nc(Cl)ccc2n1S(=O)(=O)c1ccccc1` [Example 2, 5-Chloro-1-(phenylsulfonyl)-1H-pyrrolo[3,2-b]pyridine-2-propanoic acid]: in the test on db/db mice (setting [2]), the “Cholesterol, percentage of variation relative to the control group” value is listed as “+41%”; the “Glucose, percentage of variation relative to the control group” value was −36%; the “Triglycerides, percentage of variation relative to the control group” value is recorded as −32%.

As to `O=C(O)CCCc1cc2nc(Cl)ccc2n1S(=O)(=O)c1ccc2ncsc2c1` [Example 4, 1-(6-Benzothiazolylsulfonyl)-5-chloro-1H-pyrrolo[3,2-b]pyridine-2-butanoic acid], in the test on db/db mice (setting [2]), the “Cholesterol, percentage of variation relative to the control group” value is recorded as “+4%”; the “Glucose, percentage of variation relative to the control group” value is −57%; the “Triglycerides, percentage of variation relative to the control group” value is −45%.

As for `O=C(O)CCCc1cc2nc(Cl)ccc2n1S(=O)(=O)c1ccccc1` [Example 10, 5-Chloro-1-(phenylsulfonyl)-1H-pyrrolo[3,2-b]pyridine-2-butanoic acid], the “increase of β-oxidation, percentage of variation relative to control dishes” value in test [1] was 70%.

With `O=C(O)CCCc1cc2nc(C(F)(F)F)ccc2n1S(=O)(=O)c1ccccc1` [Example 20, 1-(Phenylsulfonyl)-5-(trifluoromethyl)-1H-pyrrolo[3,2-b]pyridine-2-butanoic acid], in the test with db/db mice (setting [2]), the “Cholesterol, percentage of variation relative to the control group” value was “+13%”; the “Glucose, percentage of variation relative to the control group” value is reported as −72%; the “Triglycerides, percentage of variation relative to the control group” value is listed as −65%.

In the case of `CC(C)OC(=O)C(C)(C)Oc1ccc(C(=O)c2ccc(Cl)cc2)cc1` [Fenofibrate, fenofibrate, reference compound], in the test on db/db mice (setting [3]), the “Cholesterol, percentage of variation relative to the control group” value is recorded as “+32%”; the “Glucose, percentage of variation relative to the control group” value is −9%; the “Triglycerides, percentage of variation relative to the control group” value is recorded as −7%.

As to `CN(CCOc1ccc(CC2SC(=O)NC2=O)cc1)c1ccccn1` (stereo not shown) [Rosiglitazone, rosiglitazone, reference compound], in the test on db/db mice (setting [4]), the “Cholesterol, percentage of variation relative to the control group” value was −30%; the “Glucose, percentage of variation relative to the control group” value is on record as −41%; the “Triglycerides, percentage of variation relative to the control group” value is on record as −52%.
